The subject of experiment [1] is chickens for meat (broilers). As to the kind of experiment: Third test: feed with powdery acetylcysteine added given to chickens for meat (broilers). The class given is in vivo, chicken (Chunky broiler). The procedure: A third test was performed by giving chickens for meat (broilers) a feed having powdery acetylcysteine added thereto.
300 (150 males and 150 females) broiler-dedicated breed day-old chicks (broilers available from Nippon Chunky Co., Ltd.) are fed. As the chicks, about 350 birds (175 males and 175 females) were introduced, and individuals not having any abnormal health condition and having a close weight were selected and used in the test.
The nutritional value of this basic feed is adjusted so as to be lower than the index.
The concentration of acetylcysteine added to the basic feed was determined based on the aimed results for Chunky broiler (2014).
Three groups were assigned to the control zone and the test zone, respectively, and the chicks were raised until 49-day old.
Each flock of tested chicks was raised in an electrically heated windowless chicken house of a forced ventilation (air exhaust) type.
For vaccination, chicks vaccinated with Marek's vaccine and live fowl pox vaccine when born were introduced, and were additionally vaccinated with NB live vaccine at 4-day old and 15-day old and with live fowl pox vaccine at 21-day old.
The feed and drinking water were continuously given.

Experiment [2] concerns egg-laying hens. Kind of experiment: Second test: feed with powdery acetylcysteine added given to egg-laying hens. The class given is in vivo, chicken (Julia Light). To be noted: for egg production rate: 28 days, 42- to 46-week old hens. The procedure: The second test was performed by giving a feed, to which powdery acetylcysteine was added, to egg-laying hens.
120 individuals having an egg production rate of 82% or more 4 weeks before the start of the preparative raising were selected from Julia Light birds (281-day old when partitioned) which were being raised in the scientific feed research center of Japan Scientific Feeds Association to be fed.
Three zones were set: a control zone where a basic feed not having acetylcysteine added thereto was given, a first test zone (standard zone) where a feed comprising a basic feed to which 0.0014% acetylcysteine was added was given, and a second test zone (5-fold zone) where a feed comprising a basic feed to which 0.0072% acetylcysteine was added was given.
Four groups were assigned to each zone, and the basic feed was given for 14 days to accustom the tested hens to the test environment. After that, the feed corresponding to each zone was given for 4 weeks.
Also in the second test, a standard daily intake of acetylcysteine per bird is planned to be 1 mg per weight (Kg) of a tested hen. In the main test, from the weight at the start of preparative raising and the feed intake one week after the start of preparative raising, assuming that the weight of a tested hen was 1580 g and a daily feed intake per bird was 140 g, the amount of acetylcysteine to be added to the basic feed was set from the following expression: standard zone: amount (%) of acetylcysteine to be added to the basic feed=weight (1580 g)×acetylcysteine intake (1 mg/weight (Kg))/feed intake (114 g/day/bird)×100 5-fold zone: amount (%) of acetylcysteine to be added to the basic feed=weight (1580 g)×acetylcysteine intake (5 mg/weight (Kg))/feed intake (114 g/day/bird)×100 <Management of Raising>
The tested hens were individually managed in a terraced individual cage for egg-laying hens disposed in an open chicken house. A set of 10 continuous cages was used for each group, and a single empty cage was disposed between the zones. The feed and drinking water were continuously given. The light beams were controlled such that the bright period was 14 hours and the dark period was 10 hours.
A variation in weight, the average egg weight, the daily egg production amount, the feed intake, and the feed efficiency were subjected to analysis of variance by a method of one-way analysis of variance using the given feed as a factor, and the superiority in each interval was examined. The egg production rate was subjected to arcsine transformation, and the superiority of the difference between intervals was similarly examined. The culling hens were excluded from the average back to the start of the test, and the results of egg production and the like were summarized. The egg production rate during the test period was subjected to rejection test, and the individuals whose egg production rate was determined as abnormal were also excluded from the average back to the start of the test.
The scientific feed research center of Japan Scientific Feeds Association (821 Yoshikura, Naritashi, Chiba)
The test was performed for 42 days from September 21 to November 2, Heisei 28. The 14 days from September 21 to October 5, Heisei 28 was the preparative test period, and the 28 days from October 6 to November 2, Heisei 28 was the main test period.

Experiment [3] has as its system egg-laying hens. Kind of experiment: First test: aqueous solution of acetylcysteine given to egg-laying hens as drinking water. The class given is in vivo, chicken (Julia Light in test zone, Julia in control zone). The procedure: The first test was performed by giving an aqueous solution of acetylcysteine to egg-laying hens as drinking water.
Adult egg-laying hens were selected as the target animal for the test because data is readily collected. The point of time when the test was started was at off-peak times in egg laying.
Two breeds Julia and Julia Light were used.
For this reason, in the main test, Julia having a low feed conversion rate (high profitability) was raised in the control zone and Julia Light having a high feed conversion rate (low profitability) was raised in the test zone.
The number of hens in the test zone was 33412 Julia Light hens and that in the control zone was also 33412 Julia hens.
The test zone and the control zone were placed in Akagiyama Farm run by Takai Poultry Farm Y.K., where chickens are actually raised, to perform the test in an actual situation.
A windowless house was used because differences between individuals and differences in heath conditions are small.
The house was provided with a cage having a width of 380 mm, a length of 500 mm, and a height of 380 mm.
To avoid application of heat stress to the target chickens for the test, the test was performed for 166 days from October 21, Heisei 27 to April 3, Heisei 28. At a temperature inside the house of more than 27° C., the feed demand (feed intake) of the chickens will reduce due to heat stress.
A Kumiai Blend Feed “Akagikougen 17 Up for adult chicken” shown in FIG. 1 was given from October 21, Heisei 27 to February 13, Heisei 28, and a Kumiai Blend Feed “Akagikougen 16 Up for adult chicken” shown in FIG. 2 was given from February 23 to April 3, Heisei 28.
As the agent for improving a feed conversion rate, the agent for improving a survival rate, or the agent for improving the number of eggs laid by an egg-laying hen, an aqueous solution of acetylcysteine was given to Julia Light in the test zone as drinking water through the nipples disposed at both ends of the ceiling of the cage.
The concentration of acetylcysteine in drinking water was prepared such that 1 mg/day/Kg acetylcysteine was given to the egg-laying hens. Specifically, 3.3 L per day of a stock solution having an acetylcysteine concentration of 10% was used for 33412 Julia Light hens having a weight of about 2 Kg.
The frequency to give the agent for improving a feed conversion rate, the agent for improving a survival rate, or the agent for improving the number of eggs laid by an egg-laying hen was one time for 5 days.
Water not containing agent for improving a feed conversion rate, the agent for improving a survival rate, or the agent for improving the number of eggs laid by an egg-laying hen was given to Julia in the control zone through the nipple.
The lower columns in FIG. 3 show the difference in the number of deaths, the difference in the number of eggs laid, the average feed demand, the average egg production rate, and the average egg weight between the target chickens for the test and the control during the test period.
A smaller number of deaths and cullings of the target chickens for the test are preferred. A larger number of eggs laid are preferred. A smaller feed demand (feed intake) is preferred although it should be balanced with the egg production rate and the egg weight. A larger egg production rate is preferred. A larger egg weight and a larger average egg weight are preferred. The feed conversion rate of the target egg-laying hen for the test is calculated as a ratio of the total weight of eggs laid to the feed demand as described above. The feed demand is calculated as a product of the feed intake, the number of birds, and the survival rate. The total weight of eggs laid is calculated as a product of the number of birds, the egg production rate, and the average egg weight.
The feed conversion rate of the target egg-laying hen for the test is represented by a ratio of the amount of feed given to the total weight of eggs laid as described above. […]

The next experiment concerns chickens for meat. To be noted: 1% glycine in feed; cited from earlier work.
Where [4] appears, read: 1 mg/day/Kg in drinking water, 166 days.

“And” between values parts separate entries of the source, which are not always exact repeats. Identical values can stand only once.

Consider `CC(=O)N[C@@H](CS)C(=O)O` [acetylcysteine, N-acetyl-L-cysteine], for which, in experiment [1] (1 mg/Kg daily in feed, until 49-day old), the “feed conversion rate in the test zone relative to that in the control zone” value was found to be 100.55%. Also, the “feed efficiency in the test zone relative to that in the control zone” value in experiment [1] (Weeks 4 to 7 of the second period) stood at 101.54%. For the same molecule, the “number of deaths and cullings” value in experiment [1] (test zone, control zone 3 birds, Week 6 (sudden death syndrome)) is listed as 1 bird. Moreover, the growth rate in experiment [1] (test zone, control zone 98%) is 99.3%. For the same molecule, the “feed efficiency in the test zone relative to that in the control zone” value in experiment [1] (three weeks of the first period) turned out to be 99.32%. In addition, the “feed efficiency in the test zone relative to that in the control zone” value in experiment [1] (whole period, until 49-day old) was found to be 100.93%. The “weight at the end of the test relative to control zone” value in the experiment with egg-laying hens [2] (5-fold zone, 0.0072% acetylcysteine in feed, 4 weeks) is recorded as “approximately equal”. In addition, the egg production rate in the experiment on egg-laying hens [2] (5-fold zone, 0.0072% in feed) was found to be 98.6%. Moreover, the “feed conversion rate, higher than that in the control zone” value in the experiment on egg-laying hens [2] (feed contained 0.2% DL-methionine, zone not specified) is given as 4.43%. Also, the “weight at the end of the test, larger than that in the control zone” value in the experiment on egg-laying hens [2] (standard zone, 0.0014% acetylcysteine in feed, 4 weeks) came to 0.5%. This molecule also displayed an egg production rate in the experiment on egg-laying hens [2] (standard zone, 0.0014% in feed) of 99.2%. For the same molecule, in the experiment on egg-laying hens [3] (setting [4]), the “decrease of average egg weight in test zone compared to control zone” value turned out to be 2.16%; the “increase of average egg production rate in test zone compared to control zone” value was determined as 1.13%; the “increase of number of eggs laid in test zone compared to control zone” value is 1.67%; the “proportion of the feed conversion rate in the test zone to that in the control zone” value was 96.50% and 96.48%. Besides, in the experiment on egg-laying hens [3] (setting [4]), the “reduction (improvement) of feed conversion rate in test zone compared to control zone” value is listed as 3.52%; the “reduction of number of deaths and cullings in test zone compared to control zone” value amounted to 20%. In the experiment with egg-laying hens [3] (1 mg/day/Kg in drinking water, given one time for 5 days, 166 days, control zone 1.99), the “feed conversion rate in the test zone” value was determined as 1.92. Besides, the “reduction of feed demand” value in the experiment on egg-laying hens [3] (as shown in FIG. 3, test zone vs control zone) was 4.67%. Also, the “improvement of feed conversion rate in test zone vs control zone in consideration of the preparative test” value with egg-laying hens [3] (corrected for 1.59% increase in 20-day preparative test without agent) stood at 5.11%. In the experiment with egg-laying hens [3] (eggs collected in the test zone), the “surface roughness of egg shells, visual observation, vs eggs of control zone” value was “finer and smoother surfaces”. Further, in the experiment on egg-laying hens [3] (old hens, chicken farm), the “improvement in feed conversion rate in the test of the old hens in the chicken farm” value is recorded as “more than 5%”. Moreover, in the experiment on egg-laying hens [3] (test zone, calcium was found in the control zone), the “calcium in solid products of feces washed with water” value is on record as “no calcium was found”.

As to `NCC(=O)O` [glycine], the “weights of chickens of 7-day old vs without giving glycine” value in the experiment with chickens for meat is “smaller”.

These data come from patent US11896032B2, “Agent for improving feed conversion rate, agent for improving survival rate, agent for improving the number of eggs laid by egg-laying hen, and method of giving same to animals, and feed” (Tsubakisangyo Co., Ltd., priority 2016, dated 2024).
